Source: article PMC11123948, “Leucoverdazyls as Novel Potent Inhibitors of Enterovirus Replication” (Pathogens, 2024)
Structures can show the parent of a compound that is named as a salt.

Tests used:
SARS-CoV-2 = experiment: Viral yield reduction assay, SARS-CoV-2; format: cell-based, SARS-CoV-2 virus (Wuhan strain); conditions: Severe acute respiratory syndrome coronavirus 2, SARS-CoV-2, Vero cells
HSV1 = experiment: microbe, parasite or virus in culture; format: cell-based, herpes simplex virus type 1; conditions: Human alphaherpesvirus 1; HSV1, Vero cells, viral yield reduction
[1] = system: Influenza B/Florida/04/06; experiment: microbe, parasite or virus in culture; format: cell-based, influenza B virus (strain B/Florida/04/06, Yamagata lineage); conditions: MDCK
[2] = Cytotoxicity assay (MTT) in RD cells; format: cell-based; conditions: human, 24 h incubation with compound only
Ad5 = experiment: microbe, parasite or virus in culture; format: cell-based, human adenovirus type 5; conditions: Human mastadenovirus C, A549
CVB3 virus = experiment: Transmission electron microscopy of CVB3-infected Vero cells; conditions: MOI 100, 100 µM 1a, 3 h, TEM
Experimental: Vero cells in 6-well plates were incubated with CVB3 virus, MOI = 100, at 4 °C for 1 h. Unbound virions were removed by washing the cells twice with cold MEM; a medium containing 100 µM of 1a was added. […] Cells were incubated for 3 h at 36 °C in 5% CO2. In wells with control virus, MEM without 1a was added. After incubation, cells were collected from the wells, transferred into tubes, and centrifuged at 2000× g for 15 min. Cell pellets were fixed with 1.5% glutaraldehyde in PBS overnight, followed by post-fixation with 1.5% OsO4 for 1 h and uranyl acetate for 45 min at room temperature. They were then dehydrated in graded acetone and embedded in Epon/Araldit resin (Serva Feinbiochemica, Heidelberg, Germany). Thin sections (90 nm) were stained with lead citrate and examined in a JEM-100S electron microscope (JEOL, Tokyo, Japan).

in vitro [3] = conditions: African green monkey; for CC50 at 24 h: Vero cells
Experimental: (§1) Permissive cells were seeded in 96-well plates in Eagle’s minimal essential medium (MEM) supplemented with 10% FBS. After 24 h, the medium was removed, and the wells were washed with saline. Compounds w [...

CVB4 = experiment: Time-of-addition assay; format: cell-based, Coxsackievirus B4 (CVB4, strain Powers); conditions: CVB4 in Vero cells, 1a 5 μg/mL; for Interval of addition with highest inhibitory activity: pleconaril 10 μg/mL, titer at 8 h
Vero cells = experiment: Cytotoxicity assay (MTT) in Vero cells
Experimental: as §1

CVB3 R = experiment: microbe, parasite or virus in culture; format: cell-based, Coxsackievirus B3 (Nancy strain), passaged with 1a; conditions: Enterovirus B, CVB3, Vero
CVB4 (strain Powers) = experiment: Viral yield reduction assay, CVB4; format: cell-based, Coxsackievirus B4 (CVB4; conditions: Vero cells
[4] = system: Influenza A/Puerto Rico/8/34; experiment: Viral yield reduction assay, influenza A; format: cell-based, Influenza A virus (strain A/Puerto Rico/8/1934 (H1N1)); conditions: Influenza A virus, Influenza A/Puerto Rico/8/34, MDCK cells
Coxsackie B3 virus = experiment: microbe, parasite or virus in culture; format: cell-based, Coxsackievirus B3 (CVB3, strain Nancy); conditions: Coxsackie B3 virus (Nancy, original), viral yield reduction in Vero cells, 24 h
CVA16 = experiment: Viral yield reduction assay, CVA16; format: cell-based, Coxsackievirus A16 (clinical isolate); conditions: CVA16, RD cells
CVB3 WT = experiment: microbe, parasite or virus in culture; format: cell-based, Coxsackievirus B3 (Nancy strain), passaged without 1a; conditions: Enterovirus B, CVB3, Vero
CVB5 = experiment: Viral yield reduction assay, CVB5; format: cell-based, Coxsackievirus B5 (clinical isolate); conditions: CVB5, Vero cells
in vitro [5] = conditions: human
CVA24 = experiment: Viral yield reduction assay, CVA24; format: cell-based, Coxsackievirus A24 (clinical isolate); conditions: CVA24, RD cells
CVB4 Powers = experiment: Thermostability assay; parameters: species or system Coxsackievirus B4 (CVB4, strain Powers); conditions: compound 10 µg/mL, thermal gradient 37–55 °C for 2 min
Experimental: The thermostability assay was performed as described previously. The CVB4 strain was chosen because it is sensitive to the pleconaril used in this assay as a reference compound. The compound concentration used in the assay was selected according to the results of preliminary thermostability assays. Briefly, CVB4 Powers (10^4 TCID50) was pre-incubated with the compound (10 µg/mL), pleconaril (10 µg/mL), or an equal volume of MEM (virus control) for 30 min at +37 °C in sterile thin-walled 200 μl PCR-tubes (5 tubes per each treatment condition) in a BioRad CFX PCR-machine (BioRad Laboratories, Inc., Hercules, CA, USA). Then, a thermal gradient of 37–55 °C for 2 min, followed by rapid cooling to 4 °C, was applied. Subsequently, the infectious viral activities of the samples were quantified by end-point dilution assay.

CVB3-WT and -R variants = experiment: Growth kinetics of CVB3 WT and R variants with and without 1a; format: cell-based, Coxsackievirus B3; conditions: Vero cells, MOI 0.001, 1a 7 ug/mL, up to 72 h
ECHO30 = experiment: Viral yield reduction assay, ECHO30; format: cell-based, ECHO30 (clinical isolate); conditions: ECHO30, RD cells
in vitro [6] = conditions: dog
[7] = Antioxidant activity, DPPH assay; format: physicochemical; conditions: DPPH 200 μM in methanol, 30 min at 30 °C; vitamin C as reference; result in words
Experimental: Antioxidant activity was evaluated by spectrophotometric monitoring of the hydrogen transfer reaction with a stable chromogen radical, 2,2-diphenyl-1-picrylhydrazyl (DPPH, Sigma-Aldrich, St. Louis, MO, USA), using vitamin C (Vc) as described before. A solution of DPPH in methanol with a concentration of 200 μM was added to a solution of dihydrotetrazines in the same solvent (concentrations 5 to 50 μM). The reaction vessel (test tube) was wrapped in foil and kept for 30 min at 30 °C, and the optical density was measured at λ 517 nm (DPPH absorption maximum). The antioxidant activity (AO) was calculated by the formula AO = (1 − Atest/Acontr) × 100%, where Atest is the optical density of a solution containing a compound to be tested and DPPH, and Acontr is the optical density of a solution containing DPPH alone. The half-inhibitory concentration (IC50) corresponding to the reduction of the initial DPPH concentration by 50% was determined from the DPPH inhibition percentage plotted against concentrations of compounds 2 through 5 (Figure 1) using the OriginPro 8.5 program (OriginLab Corporation, Northampton, MA, USA) (Model DoseResp).

RD cells = experiment: Cytotoxicity assay (MTT) in RD cells; format: cell-based; conditions: 24 h incubation with compound only

c1ccc(C2=NN(c3nc4ccccc4s3)CN(c3ccccc3)N2)cc1 [Compound 1a]
IC50 (SARS-CoV-2): 4.5 ± 1.2 µM
IC50 (HSV1): 46.3 ± 4.4 µM
IC50 [1]: 40.5 ± 5.1 µM
CC50 at 24 h [2]: 673 ± 60.1 µM
IC50 (Ad5): 43.1 ± 3.8 µM
Examined cells with no replication organelles visible (CVB3 virus): 47 out of 49
CC50 (in vitro [3]): 451 ± 51.2 µM
CC50 at 24 h (in vitro [3]): 620 ± 52.7 µM
Inhibition of viral replication on late addition (CVB4; added later than 6 h after adsorption of the virus): Inhibition of viral replication was not observed
Interval of addition with highest inhibitory activity (CVB4): from −2 to 4 h post-infection
CC50 (Vero cells; SARS-CoV-2 row, 48 h or 24 h depending on virus life cycle, MTT): 656 ± 70.4 µM
IC50 (CVB3 R): 12.9 µM
IC50 (CVB4 (strain Powers); Enterovirus B): 1.7 ± 0.5 µM
IC50 [4]: 38.7 ± 2.9 µM
IC50 (Coxsackie B3 virus): 1.8 ± 0.3 µM
IC50 (Coxsackie B3 virus; Enterovirus B, B3, Vero): 2.7 µM
IC50 (CVA16; Enterovirus A): 0.8 ± 0.2 µM
IC50 (CVB3 WT): 0.48 µM
IC50 (CVB5; Enterovirus B): 1.5 ± 0.3 µM
CC50 (in vitro [5]): 501 ± 45.7 µM
IC50 (CVA24; Enterovirus C): 0.9 ± 0.3 µM
Thermostabilizing effect on virion (infectious particles after heating) (CVB4 Powers): no infectious particles were detected when heated above 45 degrees
Propagation of CVB3 strains in presence of 1a (CVB3-WT and -R variants): the resistant strain was able to effectively propagate in contrast to the wild-type virus
IC50 (ECHO30): 1.6 ± 0.4 µM
CC50 (in vitro [6]): 850 ± 78.3 µM
Antioxidant activity (DPPH assay) [7]: most pronounced antioxidant activity

COc1ccc(N2CN(c3nc4ccccc4s3)N=C(c3ccccc3)N2)cc1 [Compound 1b]
CC50 at 24 h (in vitro [3]): > 1350 µM
IC50 (Coxsackie B3 virus; Enterovirus B, B3, Vero): 5.4 ± 1.1 µM
Antioxidant activity (DPPH assay) [7]: most pronounced antioxidant activity

Clc1ccc(N2CN(c3nc4ccccc4s3)N=C(c3ccccc3)N2)cc1 [Compound 1c]
CC50 at 24 h (in vitro [3]): 321 ± 28.2 µM
IC50 (Coxsackie B3 virus; Enterovirus B, B3, Vero): 7.4 ± 2.2 µM

Brc1ccc(N2CN(c3nc4ccccc4s3)N=C(c3ccccc3)N2)cc1 [Compound 1d]
CC50 at 24 h (in vitro [3]): 886 ± 90.4 µM
IC50 (Coxsackie B3 virus; Enterovirus B, B3, Vero): 6.2 ± 1.9 µM

CC1N(c2nc3ccccc3s2)N=C(c2ccccc2)NN1c1ccccc1 (stereo not shown) [Compound 2a]
CC50 at 24 h (in vitro [3]): > 325 µM
IC50 (Coxsackie B3 virus; Enterovirus B, B3, Vero): 6.49 ± 0.8 µM

COc1ccc(N2NC(c3ccccc3)=NN(c3nc4ccccc4s3)C2C)cc1 (stereo not shown) [Compound 2b]
CC50 at 24 h (in vitro [3]): 2050 ± 198 µM
IC50 (Coxsackie B3 virus; Enterovirus B, B3, Vero): 24.1 ± 3.2 µM

CCc1ccc(N2NC(c3ccccc3)=NN(c3nc4ccccc4s3)C2C)cc1 (stereo not shown) [Compound 2c]
CC50 at 24 h (in vitro [3]): > 303 µM
IC50 (Coxsackie B3 virus; Enterovirus B, B3, Vero): > 121 µM

CC1N(c2nc3ccccc3s2)N=C(c2ccccc2)NN1c1ccc(F)cc1 (stereo not shown) [Compound 2d]
CC50 at 24 h (in vitro [3]): 49.6 ± 3.7 µM
IC50 (Coxsackie B3 virus; Enterovirus B, B3, Vero): > 49.6 µM

CC1N(c2nc3ccccc3s2)N=C(c2ccccc2)NN1c1ccc(Br)cc1 (stereo not shown) [Compound 2e]
CC50 at 24 h (in vitro [3]): 69.1 ± 5.9 µM
IC50 (Coxsackie B3 virus; Enterovirus B, B3, Vero): > 69.1 µM

CCC1N(c2nc3ccccc3s2)N=C(c2ccccc2)NN1c1ccccc1 (stereo not shown) [Compound 3a]
CC50 at 24 h (in vitro [3]): > 313 µM
IC50 (Coxsackie B3 virus; Enterovirus B, B3, Vero): > 125 µM

CCC1N(c2nc3ccccc3s2)N=C(c2ccccc2)NN1c1ccc(OC)cc1 (stereo not shown) [Compound 3b]
CC50 at 24 h (in vitro [3]): 2330 ± 25.3 µM
IC50 (Coxsackie B3 virus; Enterovirus B, B3, Vero): 60.1 ± 7.2 µM

CCC1N(c2nc3ccccc3s2)N=C(c2ccccc2)NN1c1ccc(F)cc1 (stereo not shown) [Compound 3c]
CC50 at 24 h (in vitro [3]): 360 ± 41.7 µM
IC50 (Coxsackie B3 virus; Enterovirus B, B3, Vero): 71.9 ± 6.4 µM

CCC1N(c2nc3ccccc3s2)N=C(c2ccccc2)NN1c1ccc(Br)cc1 (stereo not shown) [Compound 3e]
CC50 at 24 h (in vitro [3]): 946 ± 89.6 µM
IC50 (Coxsackie B3 virus; Enterovirus B, B3, Vero): > 210 µM

C=CC1N(c2nc3ccccc3s2)N=C(c2ccccc2)NN1c1ccccc1 (stereo not shown) [Compound 4a]
CC50 at 24 h (in vitro [3]): > 315 µM
IC50 (Coxsackie B3 virus; Enterovirus B, B3, Vero): > 126 µM

C=CC1N(c2nc3ccccc3s2)N=C(c2ccccc2)NN1c1ccc(OC)cc1 (stereo not shown) [Compound 4b]
CC50 at 24 h (in vitro [3]): > 293 µM
IC50 (Coxsackie B3 virus; Enterovirus B, B3, Vero): > 117 µM

C=CC1N(c2nc3ccccc3s2)N=C(c2ccccc2)NN1c1ccc(Cl)cc1 (stereo not shown) [Compound 4c]
CC50 at 24 h (in vitro [3]): > 291 µM
IC50 (Coxsackie B3 virus; Enterovirus B, B3, Vero): 27.9 ± 3.3 µM

C=CC1N(c2nc3ccccc3s2)N=C(c2ccccc2)NN1c1ccc(I)cc1 (stereo not shown) [Compound 4d]
CC50 at 24 h (in vitro [3]): 1530 ± 17.2 µM
IC50 (Coxsackie B3 virus; Enterovirus B, B3, Vero): 51.6 ± 6.4 µM

N=C(N)N [Guanidine hydrochloride, reference compound]
CC50 (RD cells): > 10500 µM
CC50 (Vero cells; 24 h incubation with compound only, MTT (Table 2)): > 5240 µM
IC50 (CVB4 (strain Powers)): 496 ± 26.5 µM
IC50 (CVA16): 337 ± 28.3 µM
IC50 (CVB5): 474 ± 33.4 µM
IC50 (CVA24): 314 ± 20.1 µM
IC50 (ECHO30): 126 ± 18.2 µM

Cc1cc(CCCOc2c(C)cc(-c3noc(C(F)(F)F)n3)cc2C)on1 [Pleconaril, reference compound]
CC50 at 24 h (in vitro [3]): 656 ± 58.4 µM
Interval of addition with highest inhibitory activity (CVB4): between −2 and 0 h
IC50 (Coxsackie B3 virus; Enterovirus B, B3, Vero): 15.2 ± 1.6 µM
Thermostabilizing effect on virion (infectious particles after heating) (CVB4 Powers): had a thermostabilizing effect
